pEC50: −log10 of the molar value. Calls of active or inactive are those of the source.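 How the source made its calls: active means dose response that fits an S-shaped curve with fit quality R squared above 0.5; inactive means the rest.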
Target: G protein-activated inward rectifier potassium channel 1 (Rattus norvegicus) (UniProt P63251)
Assay: alpha2C adrenergic receptor agonists via GIRK, dose response, cell-based, thallium flux (AID 435014)
Details: HEK293 alpha2C/GIRK1/2, thallium flux fluorescence

G protein-activated inward rectifier potassium channel 1 (Rattus norvegicus), sequence (P63251 whole entry, looked up): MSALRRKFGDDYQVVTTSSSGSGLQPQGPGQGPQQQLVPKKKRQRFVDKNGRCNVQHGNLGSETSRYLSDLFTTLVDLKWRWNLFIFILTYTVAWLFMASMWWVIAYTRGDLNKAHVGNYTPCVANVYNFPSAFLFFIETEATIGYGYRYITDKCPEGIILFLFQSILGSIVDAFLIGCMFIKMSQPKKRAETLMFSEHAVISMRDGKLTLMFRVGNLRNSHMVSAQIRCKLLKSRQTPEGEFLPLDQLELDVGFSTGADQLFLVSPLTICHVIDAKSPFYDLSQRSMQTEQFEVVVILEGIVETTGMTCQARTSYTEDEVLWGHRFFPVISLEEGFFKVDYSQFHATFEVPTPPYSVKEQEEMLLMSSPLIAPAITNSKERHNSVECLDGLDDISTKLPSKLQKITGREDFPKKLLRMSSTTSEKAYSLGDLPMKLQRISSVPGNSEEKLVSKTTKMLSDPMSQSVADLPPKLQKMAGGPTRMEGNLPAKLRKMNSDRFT

Q: `C[C@H]1OC[C@@H](C[N+](C)(C)C)O1` was tested. Which pEC50 did it give?
A: Its pEC50 is 6.41.

Q: How did the pEC50 turn out when `Brc1c(NC2=NCCN2)ccc2nccnc12` was run?
A: Its pEC50 is 7.09.

Q: With `Cc1c2ccncc2c(C)c2c1[nH]c1ccccc12` as the molecule, how does the pEC50 read?
A: The pEC50 was 5.51.

Q: With `CC(=O)OCC[N+](C)(C)C` as the molecule, how does the pEC50 read?
A: The pEC50 was 6.87.

Q: With `CN(C)c1ccc(/C=C/C(O)=C2/C(=O)N(C)C3(C)CC2c2ccccc2O3)cc1` (stereo not given) as the molecule, how does the pEC50 read?
A: Its pEC50 is 5.70.

Same assay, conditions: HEK293 alpha2C/GIRK1/2, thallium flux fluorescence; at 10 µM (top of the series)

Q: `COc1ccccc1NC(=O)c1oc2ccccc2c1NC(=O)c1cc(OC)c(OC)c(OC)c1` was tested. Which activation did it give?
A: The activation was “inactive”.

Q: `COc1ccc(-c2oc3ncn4nc(Cc5ccccc5)nc4c3c2-c2ccc(OC)cc2)cc1` was tested. Which activation did it give?
A: The activation was “inactive”.

Q: Which activation does the source give for `COCCOC(=O)c1c(C)oc2ccc(OC(=O)COc3c(F)c(F)c(F)c(F)c3F)cc12` here?
A: Its activation is “inactive”.

Q: `N#CCc1nc(CSc2nc3ccccc3s2)cs1` was tested. Which activation did it give?
A: The activation was “inactive”.

Q: For `Cc1ccc2c(C)nc(Nc3nc(CSc4nnnn4-c4ccccc4)cc(=O)[nH]3)nc2c1`, which activation is on record?
A: The activation was “inactive”.

Q: For `Cc1sccc1C1C(C#N)=C(N)SC(N)=C1C#N`, which activation is on record?
A: The activation was “inactive”.

Q: `CSc1nc2sc3c(c2c(=O)[nH]1)CCC(C)C3` (stereo not given) was tested. Which activation did it give?
A: Its activation is “inactive”.

Q: How did the activation turn out when `O=C(NCCSCc1ccco1)Nc1cccc(Cl)c1` was run?
A: The activation was “inactive”.

Q: For `CCOc1ccc(S(=O)(=O)N2CCN(c3ccc(C)cc3C)CC2)cc1`, which activation is on record?
A: The activation was “inactive”.

Q: Which activation does the source give for `CCc1cc2c(=O)c(-c3ccc4c(c3)OCCO4)coc2cc1OC(=O)c1ccco1` here?
A: Its activation is “inactive”.

Q: How did the activation turn out when `Cc1ccc(SCc2c(C#N)c3ccccc3n2C)cc1` was run?
A: The activation was “inactive”.

Q: How did the activation turn out when `O=S(=O)(c1ccc(S(=O)(=O)N(Cc2ccco2)Cc2ccccc2Cl)cc1)N1CCCC1` was run?
A: The activation was “inactive”.

Q: `O=C(NCc1ccco1)c1cc2cc3ccc(Cl)cc3nc2o1` was tested. Which activation did it give?
A: The activation was “inactive”.

Q: With `COC(=O)c1ccccc1NC(=O)c1noc2c1CC(C(C)(C)C)CC2` (stereo not given) as the molecule, how does the activation read?
A: The activation was “inactive”.

Q: With `CCCCC(=O)O[C@H]1CC[C@H]2[C@@H]3CCc4cc(O)ccc4[C@H]3CC[C@]12C` as the molecule, how does the activation read?
A: Its activation is “inactive”.

Q: For `C[C@]12CC[C@@H]3c4ccc(OC(=O)c5ccccc5)cc4CC[C@H]3[C@@H]1CC[C@@H]2O`, which activation is on record?
A: Its activation is “inactive”.

Q: `CC1(C)Cc2c(c(N3CCOCC3)nc3sc4c(NCc5ccco5)nnnc4c23)CS1` was tested. Which activation did it give?
A: Its activation is “inactive”.

Q: For `N/C(=N\c1nc2ccccc2o1)NC(=O)c1ccccc1NC(=O)c1ccccc1`, which activation is on record?
A: The activation was “inactive”.

Q: For `COc1cc(C(=O)Nc2cccc(-c3nc4cc(C)ccc4o3)c2)cc(OC)c1OC`, which activation is on record?
A: The activation was “inactive”.

Q: Which activation does the source give for `COc1cccc2c1C(=O)c1c(O)c3c(c(O)c1C2=O)C[C@@](O)(C(=O)CO)C[C@@H]3O[C@H]1C[C@H](N)[C@H](O)[C@H](C)O1` here?
A: The activation was “inactive”.

Q: `CCOC(=O)c1ccc(NC(=O)NC(C)C2CCCO2)cc1` (stereo not given) was tested. Which activation did it give?
A: Its activation is “inactive”.

Q: Which activation does the source give for `O=C(c1ccc(Cl)cc1)N1CCCCC(Sc2nnc(-c3ccc4c(c3)OCO4)o2)C1=O` (stereo not given) here?
A: The activation was “inactive”.

Q: Which activation does the source give for `CCOC(=O)c1sc(NC(=O)c2noc3c2CCCC3)c(C(=O)OCC)c1C` here?
A: Its activation is “inactive”.

Q: How did the activation turn out when `COc1ccc(-c2oc3ncn4nc(COc5ccccc5)nc4c3c2-c2ccc(OC)cc2)cc1` was run?
A: Its activation is “inactive”.

Q: `CC1(C)Cc2c(C#N)c(SCCOc3ccccc3)nc(N3CCOCC3)c2CO1` was tested. Which activation did it give?
A: Its activation is “inactive”.

Q: How did the activation turn out when `N#Cc1nc(COc2ccc(Br)cc2)oc1N1CCN(Cc2ccccc2)CC1` was run?
A: Its activation is “inactive”.

Q: Which activation does the source give for `COc1ccc2cc(CN(Cc3ccco3)C(c3nnnn3C3CCCCC3)C(C)C)c(=O)[nH]c2c1` (stereo not given) here?
A: Its activation is “inactive”.

Q: Which activation does the source give for `CCCOc1ccc(-c2nnn(CC(=O)Nc3cccc(C(=O)OC)c3)n2)cc1` here?
A: The activation was “inactive”.

Q: How did the activation turn out when `COc1cccc(-c2nc(-c3ccc(NC(=O)Cc4ccccc4OC)cc3)no2)c1` was run?
A: The activation was “inactive”.

Q: How did the activation turn out when `C=CCOC(=O)C1=C(C)NC(SCC(=O)Nc2ccc(C)c(Cl)c2)=C(C#N)C1c1ccco1` (stereo not given) was run?
A: The activation was “inactive”.

Q: `COc1ccc(CN(C(=O)CSc2nnc(-c3ccccc3F)o2)c2ccc(F)cc2)cc1` was tested. Which activation did it give?
A: Its activation is “inactive”.

Q: Which activation does the source give for `COC(=O)c1ccc(-c2sc3nc(N4CCOCC4)c4c(c3c2N)CCCC4)o1` here?
A: The activation was “inactive”.

Q: How did the activation turn out when `c1ccc2c(-c3nc(C4CCCCC4)no3)cc(-c3ccncc3)nc2c1` was run?
A: Its activation is “inactive”.

Q: With `O=S(=O)(c1ccccc1)N(Cc1nc(-c2ccccc2)no1)C1CCCCC1` as the molecule, how does the activation read?
A: The activation was “inactive”.

Q: How did the activation turn out when `O=c1c2ccccc2sn1-c1ccc(S(=O)(=O)N2CCCCC2)cc1` was run?
A: Its activation is “inactive”.

Q: `N#CCSc1nc2c(c(=O)n1Cc1ccco1)C1(CCCC1)Cc1ccccc1-2` was tested. Which activation did it give?
A: Its activation is “inactive”.

Q: For `Cc1ccc(Cl)cc1N1CCN(C(=O)CN2C(=O)c3cccc4cccc2c34)CC1`, which activation is on record?
A: The activation was “inactive”.

Q: For `CCC(=O)Oc1ccc(C(CC)C(CC)c2ccc(OC(=O)CC)cc2)cc1` (stereo not given), which activation is on record?
A: Its activation is “inactive”.

Q: With `CCOc1nc(-c2ccccc2)ccc1-c1noc(-c2ccc(OC)c(OC)c2)n1` as the molecule, how does the activation read?
A: The activation was “inactive”.

Q: With `COc1ccc(-c2noc(-c3cc(Cl)ccc3Cl)n2)cc1OC` as the molecule, how does the activation read?
A: Its activation is “inactive”.

Q: For `CC(C)(C)c1cc(-c2ccco2)c(C#N)c(SCC#N)n1`, which activation is on record?
A: The activation was “inactive”.

Q: For `CCN(CC)c1ccc2cc(C(=O)Nc3ccccn3)c(=O)oc2c1`, which activation is on record?
A: The activation was “inactive”.

Q: With `CCSc1nnc(NC(=O)NC(CC)(C(F)(F)F)C(F)(F)F)s1` as the molecule, how does the activation read?
A: The activation was “inactive”.

Q: For `CCOc1ccc2nc(NC(=O)CSc3nc4ccccc4c(=O)n3Cc3ccco3)sc2c1`, which activation is on record?
A: The activation was “inactive”.

Q: With `Cc1ccc(-c2nn(-c3ccccc3)cc2/C=C(\C#N)c2cccc(C#N)c2)o1` as the molecule, how does the activation read?
A: Its activation is “inactive”.

Q: For `Cc1c(C(=O)NC2CCCc3ccccc32)oc2ccc(S(=O)(=O)N3CCOCC3)cc12` (stereo not given), which activation is on record?
A: The activation was “inactive”.

Q: Which activation does the source give for `COC(=O)c1ccccc1NC(=O)c1ccc(-c2ccccc2F)o1` here?
A: The activation was “inactive”.

Q: With `CCOC(=O)c1c(-c2ccc(C)o2)csc1NC(=O)COC(=O)c1cccs1` as the molecule, how does the activation read?
A: Its activation is “inactive”.

Q: With `N#Cc1ccccc1Cn1c(=O)n(Cc2ccc(C(=O)NCc3ccco3)cc2)c(=O)c2ccccc21` as the molecule, how does the activation read?
A: The activation was “inactive”.

Q: `Cc1ccc(-c2cc(C(F)F)nc(N3CCC(C)CC3)n2)cc1` was tested. Which activation did it give?
A: The activation was “inactive”.

Q: `COc1ccc(-c2nnc(SCC(=O)Nc3ccc(Cl)cc3)n2C)cc1` was tested. Which activation did it give?
A: The activation was “inactive”.

Q: `C/C(Cl)=C/Cn1c(SCc2ccc(Cl)cc2)nc2c1c(=O)[nH]c(=O)n2C` was tested. Which activation did it give?
A: The activation was “inactive”.

Q: How did the activation turn out when `CCOC(=O)CSc1nc2cc(C(=O)NCc3ccco3)ccc2c(=O)n1-c1ccc(F)cc1` was run?
A: Its activation is “inactive”.

Q: For `COc1ccc(-c2noc(CCC(=O)Nc3nc4ccccc4s3)n2)cc1`, which activation is on record?
A: Its activation is “inactive”.

Q: With `O=c1c(-c2ccc3c(c2)OCCO3)c(C(F)(F)F)oc2cc(O)cc(O)c12` as the molecule, how does the activation read?
A: Its activation is “inactive”.

Q: For `CCCSc1nc(N2CCOCC2)c2c(c1C#N)CCCC2`, which activation is on record?
A: Its activation is “inactive”.

Q: With `CC(=O)OC(C)C[N+](C)(C)C` (stereo not given) as the molecule, how does the activation read?
A: The activation was “inactive”.

Q: `C=CCn1c(=S)[nH]c2ccccc2c1=O` was tested. Which activation did it give?
A: Its activation is “inactive”.

Q: For `COc1cccc2c1C(=O)c1c(O)c3c(c(O)c1C2=O)C[C@@](O)(C(C)=O)C[C@@H]3O[C@H]1C[C@H](N)[C@H](O)[C@H](C)O1`, which activation is on record?
A: The activation was “inactive”.

Q: How did the activation turn out when `COC(=O)c1c(NC(=O)c2nn(C)cc2Cl)sc2c1CCCC2` was run?
A: Its activation is “inactive”.
